Patent US9682995B2, “Amino-substituted isothiazoles” (BAYER PHARMA AKTIENGESELLSCHAFT, priority 2013, dated 2017)
pIC50: −log10 of the molar value.

How the values were obtained:
[1] = tested on: spindle assembly checkpoint; assay: SAC-Formation - Paclitaxel-Induced Assay; assay type: cell-based; settings: Homo sapiens; HeLa cells, paclitaxel 0.05 μM, 24 h, phosphorylated histone H3 on serine 10
Method in brief: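 HeLa cells were plated overnight, then given paclitaxel (0.05 μM final) plus compound (0.005-20 μM, 0.5% DMSO) for 24 h at 37° C. Fixed cells were stained for phospho-histone H3 Ser10 and with Hoechst, then imaged to give mitotic index. A fall in mitotic cells marks SAC breakthrough, and values were fit with a four-parameter Hill equation.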

HeLa = assay: Proliferation assay (crystal violet), HeLa; assay type: cell-based; settings: Homo sapiens, 96 h, 4 days, read-out: Inhibition of proliferation IC50 HeLa
Method in brief: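 Tumour cells seeded at 1000–5000 cells/well in medium with 10% FCS, dosed after 24 h at 0.001–10 μM (0.5% DMSO final) for 4 days. Cell number read by crystal-violet staining after glutaraldehyde fixation (A595), normalised to zero-point plate (0%) and untreated cells (100%); IC50 from 4-parameter fit.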

pIC50 [1] | pIC50 (HeLa) | Compound
7.48 | 6.38 | Cc1nsc(Nc2ccc(C#N)cn2)c1C(=O)Nc1ccc(Cl)c(Cl)c1 [Example 62, 5-[(5-Cyanopyridin-2-yl)amino]-N-(3,4-dichlorophenyl)-3-methyl-1,2-thiazole-4-carboxamide]
6.59 | 6.00 | COC(=O)c1cnc(Nc2snc(C)c2C(=O)Nc2ccc(F)c(F)c2)cn1 [Example 59, Methyl 5-({4-[(3,4-difluorophenyl)carbamoyl]-3-methyl-1,2-thiazol-5-yl}amino)-pyrazine-2-carboxylate]
6.03 | 5.19 | CNC(=O)c1cncc(Nc2snc(C)c2C(=O)Nc2ccc(F)c(F)c2)n1 [Example 70, 6-({4-[(3,4-Difluorophenyl)carbamoyl]-3-methyl-1,2-thiazol-5-yl}amino)-N-methylpyrazine-2-carboxamide]
7.20 | 5.92 | CCNC(=O)c1cncc(Nc2snc(C)c2C(=O)Nc2ccc(F)c(F)c2)n1 [Example 73, 6-({4-[(3,4-Difluorophenyl)carbamoyl]-3-methyl-1,2-thiazol-5-yl}amino)-N-ethylpyrazine-2-carboxamide]
7.08 | 6.42 | Cc1nsc(Nc2cncc(Cl)n2)c1C(=O)Nc1ccc(F)c(F)c1 [Example 71, 5-[(6-Chloropyrazin-2-yl)amino]-N-(3,4-difluorophenyl)-3-methyl-1,2-thiazole-4-carboxamide]
5.33 | 5.36 | CNC(=O)c1ccc(Nc2snc(C)c2C(=O)Nc2ccc(F)c(F)c2)nn1 [Example 80, 6-({4-[(3,4-Difluorophenyl)carbamoyl]-3-methyl-1,2-thiazol-5-yl}amino)-N-methylpyridazine-3-carboxamide]
7.38 | 6.14 | Cc1nsc(Nc2cnc3cc(C(F)(F)F)ccc3n2)c1C(=O)Nc1ccc(F)c(F)c1 [Example 60, N-(3,4-Difluorophenyl)-3-methyl-5-{[6-(trifluoromethyl)quinoxalin-2-yl]amino}-1,2-thiazole-4-carboxamide]
6.96 | 5.80 | Cc1nsc(Nc2cncc(-n3cccn3)n2)c1C(=O)Nc1ccc(F)c(F)c1 [Example 64, N-(3,4-Difluorophenyl)-3-methyl-5-{[6-(1H-pyrazol-1-yl)pyrazin-2-yl]amino}-1,2-thiazole-4-carboxamide]
6.54 | 5.82 | Cc1nsc(Nc2nc3c(C(F)(F)F)ccnc3s2)c1C(=O)Nc1ccc(F)c(F)c1 [Example 58, N-(3,4-Difluorophenyl)-3-methyl-5-{[7-(trifluoromethyl)[1,3]thiazolo[5,4-b]pyridin-2-yl]amino}-1,2-thiazole-4-carboxamide]
6.16 | 5.55 | Cc1nsc(Nc2cnccn2)c1C(=O)Nc1ccc(F)c(F)c1 [Example 65, N-(3,4-Difluorophenyl)-3-methyl-5-(pyrazin-2-ylamino)-1,2-thiazole-4-carboxamide]
7.24 | 5.72 | CNC(=O)c1cnc(Nc2snc(C)c2C(=O)Nc2ccc(F)c(F)c2)cn1 [Example 75, 5-({4-[(3,4-Difluorophenyl)carbamoyl]-3-methyl-1,2-thiazol-5-yl}amino)-N-methylpyrazine-2-carboxamide]
6.44 | 5.39 | Cc1nsc(Nc2cncc(-c3ncco3)n2)c1C(=O)Nc1ccc(Cl)c(F)c1 [Example 63, N-(4-Chloro-3-fluorophenyl)-3-methyl-5-{[6-(1,3-oxazol-2-yl)pyrazin-2-yl]amino}-1,2-thiazole-4-carboxamide]
< 4.70 | < 5.00 | CCc1ccccc1NC(=O)c1c(C)nsc1Nc1nccc(-c2ccccc2)n1 [Example 5, N-(2-Ethylphenyl)-3-methyl-5-[(4-phenylpyrimidin-2-yl)amino]-1,2-thiazole-4-carboxamide]
7.05 | 5.59 | COC(=O)c1cncc(Nc2snc(C)c2C(=O)Nc2ccc(F)c(F)c2)n1 [Example 66, Methyl 6-({4-[(3,4-difluorophenyl)carbamoyl]-3-methyl-1,2-thiazol-5-yl}amino)-pyrazine-2-carboxylate]
8.00 | 5.15 | Cc1cncc(Nc2snc(C)c2C(=O)Nc2ccc(F)c(F)c2)n1 [Example 69]
5.25 | 5.00 | COc1ccc(NC(=O)c2c(C)nsc2Nc2cnc3ccccc3n2)cn1 [Example 94, N-(6-Methoxypyridin-3-yl)-3-methyl-5-(quinoxalin-2-ylamino)-1,2-thiazole-4-carboxamide]
7.19 | 6.54 | COc1ccc(NC(=O)c2c(C)nsc2Nc2cncc(C(F)(F)F)n2)cn1 [Example 84, N-(6-methoxypyridin-3-yl)-3-methyl-5-{[6-(trifluoromethyl)pyrazin-2-yl]amino}-1,2-thiazole-4-carboxamide]
